Results published in patent US20160199343A1, “COMPOUNDS AND FORMULATIONS FOR THE TREATMENT OF WOUNDS” (NITTO DENKO CORPORATION, priority 2013, published 2016).

Legend:
[1] = tested on: full-thickness skin wounds; test: Mouse full-thickness skin wound model, scar analysis by histology; type: in vivo; conditions: for reduction in scar index: full thickness excisional wounds in mice, same application formulation, versus control group
Method: The mouse model used here can be considered one of the simplest and standard murine models for investigating scar formation and wound healing.
Mice were weighed and then anaesthetized with 5% isoflurane in air for induction and then administered 2.5-3% of isoflurane in air for the remainder of the procedure. The animals were administered Tramal (Tramadol) intraperitoneally for analgesia at a 0.1 mg/kg dose. Before surgery the back of the mice was shaved and disinfected with isobetadine soap, rinsed with water and then swabbed with iodium alcohol.
The back of the mice was shaved and four full-thickness skin wounds were performed by cutting the folded skin on the back of the mice with a 7.5 mm×3 mm elliptical biopsy punch (Elliptical Excisional Instrument, Acuderm Inc.). The skin on the back was raised and folded at the level of the vertebral column by using the thumb and the index finger. The folded skin was then placed on a wood tongue depressor with the animal laying on one side and two wounds were performed through the folded skin by using an elliptical biopsy punch (Elliptical Excisional Instrument, Acuderm Inc.), resulting in four wounds on the back skin: two on the right of the vertebral column and two on the left (FIG. 9). The epidermis, the dermis and the fat tissue in the wound was carefully removed without touching other tissues. The wounds were then immediately treated with topical application of either the hydrogel or the ointment (glycerol+HEPES buffer) formulation containing the active substance (T1 and T2) or vehicle (Tv) and one wound was (Ts) left untreated (FIG. 9). The position of the wounds was randomised according to a list. The wound site was then covered with OP-Film (Somed International, the Netherlands) (FIG. 9). The borders were then fixed with cyanoacrylate glue (Loctite).
This model is identical to the excisional model above except that the wounds were closed with three sutures.
The treatment was repeated at the day 1, 2, 3 and 4 post-surgery for a total of 5 treatments in the first 5 days of healing. At each time point the mice were briefly anaesthetized with isoflurane and a new dose of ointment was injected through the film onto the wound, after which the animal was left to recover. At day 5 all films were removed.
After 14 days the mice were sacrificed under isoflurane anaesthesia by cervical dislocation to harvest the regenerated tissue. At sacrifice the mice were weighed and a gross necropsy was performed during which the following tissues are harvested:
Skin samples were also taken. The back of the mouse was carefully shaved paying careful attention to not touch the wound area. […]
The extent of scarring was measured in accordance with the procedure set out by Khorasani et al (2011). […]

[2] = tested on: 3T3 mouse fibroblast; test: In vitro scratch assay; type: cell-based; conditions: 3000 μM in culture medium, followed up to 12 hrs post scratching, linear regression
Method: The compounds of Formula (1) and (1a) were also tested by means of an in vitro model of wound healing. An in vitro scratch assay was performed as was described in Nature Protocols by Liang et al., 2007. In short, 3T3 mouse fibroblast were seeded onto a fibronectin coated 6-well plate and the confluent monolayers were scratched with a 200 μl pipette tip to obtain a linear gap in the monolayer. The closure of this monolayer was then followed up to 12 hrs post scratching. In order to evaluate the effect of the compound (isosorbide, isoidide and isomannide) either 30 μM or 3000 μM of the test compound were added to the culture medium. The increased dose was applied as the model cannot be entirely related to the in vivo situation as the closure time of this model is considerably faster as the in vivo wound (<18 hrs vs. weeks, resp.). The basic medium comprised DMEM, FCS 5%, HEPES 20 mM, L-glutamine 4 mM and 1% pen/strep. Hereto either nothing or the aforementioned concentrations of test compounds were added.

[3] = tested on: S. aureus; conditions: cited from earlier work
[4] = tested on: infected and other superficial wounds; conditions: 120 patients, wounds treated with sugar; cited from earlier work

**Q.** Which “reduction in scar index” value [1] does the source give for `O[C@H]1CO[C@H]2[C@@H]1OC[C@@H]2O` [Isoidide, 1,4:3,6-Dianhydro-D-iditol] here?
**A.** Its value is 44%.

**Q.** And the “effect on closure speed (reduction)” value [2]?
**A.** Its value is 27%.

**Q.** Which results are given for `O[C@@H]1CO[C@H]2[C@@H]1OC[C@H]2O` [Isomannide, 1,4:3,6-dianhydro-D-mannitol]?
**A.** reduction in scar index [1]: 38%; effect on closure speed (reduction) [2]: 23%

**Q.** With `O[C@@H]1CO[C@H]2[C@@H]1OC[C@@H]2O` [Isosorbide] as the molecule, how does the “Scar index compared to Vehicle-treated / control group (statistics)” value ([1]; 1-way ANOVA with Dunnet's comparison, p<0.05) read?
**A.** The value was “significantly different from Control and Vehicle”.

**Q.** What about the Collagen organisation trend ([1]; mouse wounds, upon administration) of the same molecule?
**A.** The Collagen organisation trend was “increased values”.

**Q.** And the “effect on closure speed (reduction)” value [2]?
**A.** Its value is 10%.

**Q.** Which “sugar solution concentration affecting complete in vitro growth of S. aureus” value [3] does the source give for `OC[C@H]1O[C@@](CO)(O[C@H]2O[C@H](CO)[C@@H](O)[C@H](O)[C@H]2O)[C@@H](O)[C@@H]1O` [sugar, sucrose] here?
**A.** The value was 183 g/100 g water.

**Q.** What about the curing rate [4] of the same molecule?
**A.** Its curing rate is 99.2%.
